What all share (assay): inhibition of tumour cell growth, NCI panel, 48 h
For test [1], the system named is CAKI-1 renal.
Test [2] concerns NCI-H460 lung.
In test [3] the test system is OVCAR-3 ovarian.
Test [4] concerns OVCAR-4 ovarian.
For test [5], the system named is SF-295 CNS.
Test [6] has as its system SF-539 CNS.
The test system of test [7] is SK-MEL-2 melanoma.
Test [8] concerns SK-OV-3 ovarian.
Test [9] concerns SNB-19 CNS.
For test [10], the system named is UACC-62 melanoma.

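Values below derive from 48-hour exposures of cells grown in 96-well plates, with endpoints linearly interpolated between the two concentrations bracketing the appropriate inhibition level. Here, GI50 denotes the concentration required for 50% inhibition of growth. TGI is the concentration that stops growth completely.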

For `COc1cc2cc(Oc3ccc(NC(=O)Nc4ccc(F)c(C(F)(F)F)c4)cc3)c(C)nc2cc1OCCN1CCCCC1`, the GI50 was 1.47 µM in [1]; 1.89 µM in test [2]; 1.87 µM in test [3]; 1.6 µM in test [4]; 1.8 µM in test [5]; 1.68 µM in test [6]. Besides, the GI50 in test [7] was 1.84 µM; in test [8], 1.87 µM; in test [9], 1.76 µM; in test [10] it was 1.71 µM. The TGI in [1] worked out at 2.78 µM; in test [2], 3.6 µM; in test [3] it was 3.44 µM; in test [4], 3.13 µM; in [5], 3.29 µM; in test [6], 3.08 µM. For the same compound, the TGI was determined as 3.45 µM in test [7], 3.42 µM in test [8], 3.29 µM in test [9] and 3.19 µM in test [10].
With `CCOC(=O)c1ncoc1[C@H]1COC(C)(C)O1`, the TGI in [1], in test [2], in test [3], in test [4], in test [5] and in [6] was > 100 µM in each case. In addition, the TGI in [7], in test [8], in [9] and in test [10] was > 100 µM throughout.
Consider `O=C(c1ccccc1)c1nn(-c2ccc(Cl)cc2)c2nc3nc(-c4ccccc4)cc(=O)n3nc12`, for which the GI50 in test [1] was > 100 µM; in [2], 39.1 µM; in test [3] it was 24.5 µM; in [4], 39.9 µM; in [5], 23.5 µM; in test [6], 22.4 µM. Further, the GI50 in test [7] is 26.3 µM; in test [8], > 100 µM; in [9], 39.9 µM; in test [10], 19.8 µM. Further, the TGI was > 100 µM in [1]; > 100 µM in [2]; 77.8 µM in [3]; > 100 µM in test [4]; 63.1 µM in [5]; 45.4 µM in [6]. Besides, the TGI is 70.4 µM in test [7], > 100 µM in test [8], > 100 µM in test [9] and 41.9 µM in test [10].

For the origin of these results see PubChem BioAssay (NCI).
